Experimental data reported in ChEMBL document CHEMBL4024742, “Pharmaceutical Approaches to Target Antibiotic Resistance Mechanisms” (J Med Chem, 2017).
pIC50, pKi: −log10 of the molar value. Converted amounts (≈) assume the structure as drawn. Where a SMILES comes first, the peptide text is derived from it. The star is where a group is joined. βNA = c1ccc2cc(N*)ccc2c1

Legend:
[1] = Inhibition of bacterial IMP-1 using nitrocefin as substrate; parameters: species or system Bacteria
[2] = Inhibition of bacterial AmpC; parameters: species or system Bacteria
[3] = tested on: Escherichia coli; assay: Potentiation of cefotaxime induced-antimicrobial activity against Escherichia coli (reference value: 8 to 128 ug/ml); assay type: functional
[4] = tested on: Enterobacter; assay: Antibacterial activity against ESBL/KPC-producing Enterobacter assessed as potentiation of aztreonam induced-antimicrobial activity by measuring aztreonam MIC (Rvb > 16 ug/ml); assay type: functional
[5] = Inhibition of Escherichia coli PBP2
[6] = tested on: Escherichia coli; assay: Antibacterial activity against multi drug-resistant Escherichia coli EM7 mutant after 24 hrs by serial dilution method; assay type: functional
[7] = tested on: Escherichia coli; assay: Antibacterial activity against multi drug-resistant Escherichia coli KG1 after 24 hrs by serial dilution method; assay type: functional; settings: KG1, 24 h
[8] = tested on: Escherichia coli; assay: Antibacterial activity against multi drug-resistant Escherichia coli EM5 mutant after 24 hrs by serial dilution method; assay type: functional
[9] = tested on: Escherichia coli; assay: Antibacterial activity against multi drug-sensitive Escherichia coli MTCC 739 after 24 hrs by serial dilution method; assay type: functional; settings: MTCC 739, 24 h
[10] = tested on: Escherichia coli; assay: Antibacterial activity against multi drug-resistant Escherichia coli KG4 after 24 hrs by serial dilution method; assay type: functional; settings: KG4, 24 h
[11] = tested on: Escherichia coli; assay: Potentiation of tetracycline induced-antimicrobial activity against Escherichia coli assessed as fold reduction in tetracycline MIC at 25 ug/ml after 24 hrs by broth checkerboard method; assay type: functional
[12] = tested on: Staphylococcus aureus; assay: Antibacterial activity against Staphylococcus aureus 1199B after 24 hrs by broth microdilution method; assay type: functional
[13] = tested on: Staphylococcus aureus; assay: Antibacterial activity against Staphylococcus aureus ATCC 25923 after 24 hrs by broth microdilution method; assay type: functional; settings: ATCC 25923, 24 h
[14] = target: T1, Quinolone resistance protein NorA (Staphylococcus aureus) (UniProt P0A0J7); assay: Inhibition of Staphylococcus aureus 1199B NorA assessed as potentiation of ciprofloxacin-induced antibacterial activity at 32 ug/ml after 24 hrs (reference value: 16 ug/ml)
T1 sequence (whole entry): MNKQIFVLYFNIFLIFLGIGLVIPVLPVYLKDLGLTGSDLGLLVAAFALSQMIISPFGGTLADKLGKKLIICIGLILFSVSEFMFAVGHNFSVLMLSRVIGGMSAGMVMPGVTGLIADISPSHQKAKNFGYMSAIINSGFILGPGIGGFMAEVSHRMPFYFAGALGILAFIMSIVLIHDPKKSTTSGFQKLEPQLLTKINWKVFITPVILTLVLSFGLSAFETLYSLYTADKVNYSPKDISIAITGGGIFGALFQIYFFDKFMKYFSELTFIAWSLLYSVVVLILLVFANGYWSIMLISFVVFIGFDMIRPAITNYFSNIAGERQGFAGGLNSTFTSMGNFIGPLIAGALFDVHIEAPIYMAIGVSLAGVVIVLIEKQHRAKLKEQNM

[15] = tested on: Staphylococcus epidermidis; assay: Inhibition of biofilm formation in Staphylococcus epidermidis DSM 3269 at 1.5 ug/ml after 24 hrs by MTT assay; assay type: functional; settings: DSM 3269, 24 h
[16] = tested on: Staphylococcus aureus; assay: Inhibition of biofilm formation in Staphylococcus aureus ATCC 657 at 1.5 ug/ml after 24 hrs by MTT assay; assay type: functional; settings: ATCC 657, 24 h
[17] = tested on: Staphylococcus aureus; assay: Inhibition of biofilm formation in Staphylococcus aureus ATCC 25923 at 1.5 ug/ml after 24 hrs by MTT assay; assay type: functional; settings: ATCC 25923, 24 h
[18] = tested on: Staphylococcus aureus; assay: Inhibition of biofilm formation in Staphylococcus aureus ATCC 29213 at 1.5 ug/ml after 24 hrs by MTT assay; assay type: functional; settings: ATCC 29213, 24 h
[19] = tested on: Staphylococcus epidermidis; assay: Inhibition of biofilm formation in Staphylococcus epidermidis RP62A at 1.5 ug/ml after 24 hrs by MTT assay; assay type: functional
[20] = tested on: Staphylococcus aureus; assay: Inhibition of biofilm formation in Staphylococcus aureus ATCC 702 at 1.5 ug/ml after 24 hrs by MTT assay; assay type: functional; settings: ATCC 702, 24 h
[21] = tested on: Staphylococcus aureus; assay: Antibiofilm activity against methicillin-resistant Staphylococcus aureus BAA-44 at 100 uM after 24 hrs by crystal violet staining based assay; assay type: functional; settings: BAA-44, 24 h
[22] = tested on: Staphylococcus aureus; assay: Antibiofilm activity against methicillin-resistant Staphylococcus aureus BAA-44 after 24 hrs by crystal violet staining based assay; assay type: functional; settings: BAA-44, 24 h
[23] = target: T1, Quinolone resistance protein NorA (Staphylococcus aureus); assay: Inhibition of Staphylococcus aureus 1199B NorA assessed as potentiation of ciprofloxacin-induced antibacterial activity by measuring fold reduction in ciprofloxacin MIC at 12.5 to 25 uM
[24] = tested on: Escherichia coli; assay: Antimicrobial activity against Escherichia coli; assay type: functional
[25] = tested on: Enterobacter; assay: Antimicrobial activity against Enterobacter; assay type: functional
[26] = tested on: Pseudomonas aeruginosa; assay: Antimicrobial activity against Pseudomonas aeruginosa; assay type: functional
[27] = tested on: Staphylococcus aureus; assay: Antibacterial activity against planktonic Staphylococcus aureus ATCC 43866 after 24 hrs by broth microdilution method; assay type: functional; settings: ATCC 43866, 24 h
[28] = tested on: Staphylococcus epidermidis; assay: Antibacterial activity against planktonic Staphylococcus epidermidis RP62A after 24 hrs by broth microdilution method; assay type: functional
[29] = tested on: Staphylococcus aureus; assay: Antibacterial activity against planktonic Staphylococcus aureus ATCC 29213 after 24 hrs by broth microdilution method; assay type: functional; settings: ATCC 29213, 24 h
[30] = Inhibition of bacterial AmpC using nitrocefin as substrate incubated for 5 mins followed by substrate addition by UV-vis spectrophotometer; parameters: species or system Bacteria
[31] = tested on: Pseudomonas aeruginosa; assay: Inhibition of Pseudomonas aeruginosa MexAB-Oprm assessed as potentiation of levofloxacin-induced antibacterial activity at 50 ug/ml (reference value: 16 ug/ml)
[32] = tested on: Pseudomonas aeruginosa; assay: Inhibition of Pseudomonas aeruginosa MexAB-Oprm assessed as potentiation of ciprofloxacin-induced antibacterial activity at 50 ug/ml (reference value: 16 ug/ml)

For `O=C(O)[C@@H](Cc1ccc2c(c1)OCO2)[C@@H](Cc1ccc2c(c1)OCO2)C(=O)O`, the pIC50 [1] was 3.70.

With `O=S(=O)(NCB(O)O)c1ccc(-c2nnn[nH]2)nc1` the pKi [2] was 9.10 and the MIC [3] was 0.5 to 1 mg/L.

With `NC(=O)[C@@H]1CC[C@@H]2CN1C(=O)N2OS(=O)(=O)[O-].[Na+]` [AVIBACTAM SODIUM] the MIC [4] was < 4 mg/L and the pIC50 [5] was 4.20.

Compound `COc1cc(C(=O)O[C@H]2CCC(=O)c3ccccc32)cc(OC)c1OC` [4-O-(3,4,5-TRIMETHOXYBENZOYL)-ALPHA-TETRALONE] has an MIC [6] of 250 to 1000 mg/L (≈ 702 to 2810 µM), an MIC [7] of 250 to 1000 mg/L (≈ 702 to 2810 µM) and an MIC [8] of 250 to 1000 mg/L (≈ 702 to 2810 µM). The MIC [9] was 250 to 1000 mg/L (≈ 702 to 2810 µM), the MIC [10] was 250 to 1000 mg/L (≈ 702 to 2810 µM) and the “fold change (FC)” value [11] was 8.

With `O=C(NC(C(=O)O)c1c[nH]c2ccc(Br)cc12)c1c[nH]c2ccc(Br)cc12` (configuration not stated) the MIC [12] was > 32 mg/L, the MIC [13] was > 32 mg/L and the MIC [14] was 4 mg/L.

For `O=C(c1cc(Br)cc(Br)c1O)c1[nH]c(Br)c(Br)c1Br`, the inhibition at 1.5 µg/mL [15] was 68.5 to 100%, the inhibition at 1.5 µg/mL [16] was 68.5 to 100% and the inhibition at 1.5 µg/mL [17] was 68.5 to 100%. The inhibition at 1.5 µg/mL [18] was 68.5 to 100%, the inhibition at 1.5 µg/mL [19] was 68.5 to 100% and the inhibition at 1.5 µg/mL [20] was 68.5 to 100%.

In the case of `CCCCOc1cc(Br)cc(/C=C(\C)Cn2cc(CCCCCc3c[nH]c(N)n3)nn2)c1F`, the inhibition at 100 µM [21] was > 94% and the pIC50 [22] was 5.35.

`COc1cc(CNC(=O)CCCC/C=C/C(C)C)ccc1O` showed a fold change (FC) [23] of 2 to 4.

For `O=C(NOC1CCNC1)[C@@H]1CC[C@@H]2CN1C(=O)N2OS(=O)(=O)[O-].[Na+]` (some centres not stated), the MIC [24] was ≤ 2 mg/L, the pIC50 [5] was 4.80 and the MIC [25] was ≤ 2 mg/L. For the same compound, the MIC [26] was ≤ 2 mg/L.

With `O=C(c1cc(Cl)cc(Cl)c1O)c1[nH]c(Cl)c(Cl)c1Cl` the inhibition at 1.5 µg/mL [15] was > 60%, the inhibition at 1.5 µg/mL [16] was > 60% and the inhibition at 1.5 µg/mL [17] was > 60%. The inhibition at 1.5 µg/mL [18] was > 60%, the inhibition at 1.5 µg/mL [19] was > 60% and the inhibition at 1.5 µg/mL [20] was > 60%.

`CCCCCCCCCCCCCC(=O)O[C@H]1CCC(=O)c2ccccc21` [4-O-MYRICITOYL-ALPHA-TETRALONE] showed an MIC [6] of 250 to 1000 mg/L (≈ 671 to 2680 µM), an MIC [7] of 250 to 1000 mg/L (≈ 671 to 2680 µM) and an MIC [8] of 250 to 1000 mg/L (≈ 671 to 2680 µM). For the same compound, the MIC [9] was 250 to 1000 mg/L (≈ 671 to 2680 µM) and the MIC [10] was 250 to 1000 mg/L (≈ 671 to 2680 µM).

`CCCCCCCCCCCCCCCC(=O)O[C@H]1CCC(=O)c2ccccc21` [4-O-PALMITOYL-ALPHATETRALONE] showed an MIC [6] of 250 to 1000 mg/L (≈ 624 to 2500 µM), an MIC [7] of 250 to 1000 mg/L (≈ 624 to 2500 µM) and an MIC [8] of 250 to 1000 mg/L (≈ 624 to 2500 µM). For the same compound, the MIC [9] was 250 to 1000 mg/L (≈ 624 to 2500 µM) and the MIC [10] was 250 to 1000 mg/L (≈ 624 to 2500 µM).

In the case of `C/C(=C\c1cccc2ccccc12)Cn1cc(CCCCCc2c[nH]c(N)n2)nn1`, the inhibition at 100 µM [21] was > 94% and the pIC50 [22] was 5.01.

For `Cc1nn(C)c([N-]C(=O)c2ccc(Cl)cc2Cl)c1[N+]#N`, the MIC [27] was 1.5 to 12.5 mg/L (≈ 4.84 to 40.3 µM), the MIC [28] was 1.5 to 12.5 mg/L (≈ 4.84 to 40.3 µM) and the MIC [29] was 1.5 to 12.5 mg/L (≈ 4.84 to 40.3 µM).

With `O=C(NNC(=O)[C@@H]1CC[C@@H]2CN1C(=O)N2OS(=O)(=O)[O-])C1CNC1.[Na+]` the MIC [24] was ≤ 2 mg/L, the pIC50 [5] was 5.44 and the MIC [25] was ≤ 2 mg/L. The MIC [26] was ≤ 2 mg/L.

`O=C(Cc1cccs1)N[C@H](B(O)O)c1cccc(C(=O)O)c1` showed a pKi [30] of 9.00.

For `N=C(N)NCCC[C@H](NC(=O)[C@@H](N)Cc1ccccc1)C(=O)Nc1ccc2ccccc2c1` (H-Phe-Arg-βNA), the MIC [31] was 2 mg/L and the MIC [32] was 2 mg/L.

`O=C(O)[C@H](Cc1ccc2c(c1)OCO2)[C@@H](Cc1ccc2c(c1)OCO2)C(=O)O` gave a pIC50 [1] of 6.68.

`O=S(=O)(NCB(O)O)c1ccc(-c2nnn[nH]2)cc1C(F)(F)F` showed a pKi [2] of 10.30.
